This passage reports EC50 results from US12600716B2 (Gannex Pharma Co., Ltd., priority 2020, dated 2026).

One assay addresses T1, hFXR-LBD-GAL4 (Homo sapiens, UniProt Q96RI1).
T1 construct: GAL4 (fusion partner); host or cells: HEK293T
T1 sequence (Q96RI1 262-486 limits assumed): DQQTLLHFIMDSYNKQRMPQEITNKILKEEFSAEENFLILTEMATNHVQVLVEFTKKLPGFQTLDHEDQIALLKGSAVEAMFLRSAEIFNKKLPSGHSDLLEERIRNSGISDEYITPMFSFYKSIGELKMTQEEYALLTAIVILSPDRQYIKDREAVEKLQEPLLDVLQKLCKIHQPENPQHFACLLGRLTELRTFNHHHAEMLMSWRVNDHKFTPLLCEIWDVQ
In words: FXR agonist transactivation ability: luciferase reporter gene in HEK293T. The settings on record: read-out: Cell activity. The format is cell-based. The procedure:
FXR Agonist Transactivation Ability
Evaluation of the ability of the compound of the present invention to promote FXR transactivation was conducted by using luciferase reporter gene expression technology.
• 1. Cell line: HEK293T (Invitrogen) • 2. Expression plasmid: pBIND-hFXR-LBD-GAL4 (Promega), pGL4.35-luciferase (Promega) • 3. Cell culture medium: 10% serum and penicillin/streptomycin double antibody in DMEM medium • 4. Detection reagent: Steady-Glo fluorescence detection system (Promega). • 5. Transfection reagent: TransIT-293 Transfection Reagent (MIRUS BIO)
• 1. The compound was prepared into a 10 mM DMSO stock solution and stored in a −20° C. refrigerator for a long time. • 2. Resuscitation HEK293T cells were seeded in 10 cm culture dishes at a concentration of 5.5×10^6 and incubated for 16 hours at 37° C. in a 5% CO2 incubator. • 3. Return the transfection reagent to room temperature before transfection. The Trans-IT solution was added dropwise to Opti-MEM, and mixed by inversion for 5 minutes; the expression plasmid was added, mixed by inversion, and incubated at room temperature for 20 minutes. • 4. Add the transfection mixture from Step 3 to the prepared 10 cm dish in Step 2 and incubate for 5-6 hours in a 5% CO2 incubator. • 5. Dilute the compound 3 folds to 10 concentration points using DMSO; add 25 nl of compound per well in a 384-well plate using an Echo 550 sonic pipette; add HEK293T cells to the 384-well plate at a concentration of 15,000 cells/well; 37° C. incubate for 16-20 hours in a 5% CO2 incubator. • 6. Add 25 μl of Steady-Glo Fluorescent Reagent to each well and read the fluorescence on an Envision 2104 plate reader. • 7. Calculate the EC50 value of the activation of the compound.

The next assay deals with T2, human FXR protein (Homo sapiens, UniProt Q96RI1).
T2 construct: purchased Invitrogen
In words: FXR agonist binding ability: time-resolved fluorescence (LanthaScreen) FXR/coactivator assay. The class given is biochemical. The conditions noted are these: GST-labeled human FXR, fluorescein-labeled coactivator, TR-FRET. The procedure:
FXR Agonist Binding Ability Evaluation of the activation effect of the compound of the present invention with regard to the binding of FXR to its co-stimulatory factor SRC-1 was conducted by using time-resolved analytical techniques. Protein: glutathione-S-transferase (GST)-labeled human FXR protein (Invitrogen) • 2. Coactivator: Fluorescein-labeled steroid receptor coactivator (SRC2-2) (Invitrogen) • 3. Detection reagent: LanthaScreen Time-Resolved Fluorescence Analysis Kit (Invitrogen) • 1. The compound was prepared into a 10 mM DMSO stock solution and stored in a −20° C. refrigerator for a long time. • 2. The compound was diluted to 1 mM before the experiment, and then the compound was diluted 3-fold to 10 concentration points using DMSO. Then use buffer G (Invitrogen, PV4553) to dilute these 10 concentration points by 50 times to become a working fluid. Add 10 μl of each working solution to each well of a 384-well plate. • 3. Prepare a human FXR protein solution (final concentration 20 nM) in chilled buffer G and add 5 μl of human FXR protein solution to each well of a 384-well plate. • 4. Prepare a mix of buffer G containing 2 μM fluorescein-labeled steroid receptor coactivator and 20 nM GST antibody. • 5. Add 5 μl of the mixture prepared in Step 4 to a 384-well plate. • 6. Centrifuge the 384-well plate at 1000 g for 1 minute. • 7. Incubate for 1 hour at room temperature in the dark. • 8. Read the 384-well plate at 520 nm and 495 nm on an Envision 2104 plate reader. • 9. Calculate the EC50 value of the activation effect of the compound.

For `O=C(O)c1ccc(Oc2ccc3cc(OCc4c(-c5c(Cl)cccc5Cl)noc4C4CC4)ccc3c2)nn1` [Compound 2, 6-((6-((5-cyclopropyl-3-(2,6-dichlorophenyl)isoxazol-4-yl)methoxy)naphthalen-2-yl)oxy)pyridazine-3-carboxylic acid], the figures for the EC50 at hFXR-LBD-GAL4 and at human FXR protein were above 1000 nM and 50 to 500 nM, respectively.

Consider `O=C(O)c1cnc(Oc2ccc3cc(OCc4c(-c5c(Cl)cccc5Cl)noc4C4CC4)ccc3c2)c(Cl)c1` [Compound 3, 5-chloro-6-((6-((5-cyclopropyl-3-(2,6-dichlorophenyl)isoxazol-4-yl)methoxy)naphthalen-2-yl)oxy)nicotinic acid], for which the EC50 on hFXR-LBD-GAL4 is above 1000 nM; at human FXR protein it was above 500 nM.

For the molecule `O=C(O)c1cnc(Oc2ccc3cc(OCc4c(-c5c(Cl)cccc5Cl)noc4C4CC4)ccc3c2)s1` [Compound 4, 2-((6-((5-cyclopropyl-3-(2,6-dichlorophenyl)isoxazol-4-yl)methoxy)naphthalen-2-yl)oxy)thiazole-5-carboxylic acid], the EC50 at hFXR-LBD-GAL4 was above 1000 nM; at human FXR protein it was 50 to 500 nM.

With `Cc1cc(C(=O)O)cnc1Oc1ccc2cc(OCc3c(-c4c(Cl)cccc4Cl)noc3C3CC3)ccc2c1` [Compound 5, 6-((6-((5-cyclopropyl-3-(2,6-dichlorophenyl)isoxazol-4-yl)methoxy)naphthalen-2-yl)oxy)-5-methylnicotinic acid], the EC50 is above 1000 nM at hFXR-LBD-GAL4 and above 500 nM at human FXR protein.

`O=C(NS(=O)(=O)C1CC1)c1ccc(Oc2ccc3cc(OCc4c(-c5c(Cl)cccc5Cl)noc4C4CC4)ccc3c2)nc1` [Compound 6, 6((6((5-cyclopropyl-3-(2,6-dichlorophenyl)isoxazol-4-yl)methoxy)naphthalen-2-yl)oxy)-N-(cyclopropylsulfonyl)nicotinamide]: the EC50 at hFXR-LBD-GAL4 was above 1000 nM; at human FXR protein it was 50 to 500 nM.

Regarding `O=C(O)c1cnc(Oc2ccc3cc(OCc4c(-c5c(Cl)cccc5Cl)noc4C4CC4)ccc3c2)cn1` [Compound 7, 5-((6-((5-cyclopropyl-3-(2,6-dichlorophenyl)isoxazol-4-yl)methoxy)naphthalen-2-yl)oxy)pyrazine-2-carboxylic acid], the values for the EC50 at hFXR-LBD-GAL4 and at human FXR protein were above 1000 nM and above 500 nM, respectively.

On to `O=C(O)c1ccc(Oc2ccc3cc(OCc4c(-c5c(Cl)cccc5Cl)noc4C4CC4)ccc3c2)nc1Cl` [Compound 8, 2-chloro-6-((6-((5-cyclopropyl-3-(2,6-dichlorophenyl)isoxazol-4-yl)methoxy)naphthalen-2-yl)oxy)nicotinic acid], for which the EC50 fell in the range of 500 to 1000 nM at hFXR-LBD-GAL4 and 50 to 500 nM at human FXR protein.

Turning to `O=C(O)c1ccc(Oc2ccc3cc(OCc4c(-c5c(Cl)cccc5Cl)noc4C4CC4)ccc3c2)cn1` [Compound 9, 5-((6-((5-cyclopropyl-3-(2,6-dichlorophenyl)isoxazol-4-yl)methoxy)naphthalen-2-yl)oxy)picolinic acid], the EC50 at hFXR-LBD-GAL4 was above 1000 nM; at human FXR protein, 50 to 500 nM.

For `O=C(O)c1ccnc(Oc2ccc3cc(OCc4c(-c5c(Cl)cccc5Cl)noc4C4CC4)ccc3c2)c1` [Compound 12, 2-((6-((5-cyclopropyl-3-(2,6-dichlorophenyl)isoxazol-4-yl)methoxy)naphthalen-2-yl)oxy)isonicotinic acid], the EC50 was above 1000 nM on hFXR-LBD-GAL4 and below 50 nM on human FXR protein.

Turning to `O=C(O)c1ncccc1Oc1ccc2cc(OCc3c(-c4c(Cl)cccc4Cl)noc3C3CC3)ccc2c1` [Compound 13, 3-((6-((5-cyclopropyl-3-(2,6-dichlorophenyl)isoxazol-4-yl)methoxy)naphthalen-2-yl)oxy)picolinic acid], the EC50 is above 1000 nM at hFXR-LBD-GAL4 and 50 to 500 nM at human FXR protein.

On to `O=C(O)c1ccccc1Oc1ccc2cc(OCc3c(-c4c(Cl)cccc4Cl)noc3C3CC3)ccc2c1` [Compound 14, 2-((6-((5-cyclopropyl-3-(2,6-dichlorophenyl)isoxazol-4-yl)methoxy)naphthalen-2-yl)oxy)benzoic acid], for which the EC50 at hFXR-LBD-GAL4 was above 1000 nM; on human FXR protein, 50 to 500 nM.

For the molecule `O=C(O)c1cccnc1Oc1ccc2cc(OCc3c(-c4c(Cl)cccc4Cl)noc3C3CC3)ccc2c1` [Compound 15, 2-((6-((5-cyclopropyl-3-(2,6-dichlorophenyl)isoxazol-4-yl)methoxy)naphthalen-2-yl)oxy)nicotinic acid], the EC50 at hFXR-LBD-GAL4 was above 1000 nM; at human FXR protein, 50 to 500 nM.

For the molecule `O=C(O)c1ccncc1Oc1ccc2cc(OCc3c(-c4c(Cl)cccc4Cl)noc3C3CC3)ccc2c1` [Compound 16, 3-((6-((5-cyclopropyl-3-(2,6-dichlorophenyl)isoxazol-4-yl)methoxy)naphthalen-2-yl)oxy)isonicotinic acid], the EC50 at hFXR-LBD-GAL4 is above 1000 nM; at human FXR protein, below 50 nM.

For `O=C(O)c1ccc(Oc2ccc3cc(OCc4c(-c5ccccc5OC(F)(F)F)noc4C4CC4)ccc3c2)nc1` [Compound 17], the EC50 is above 1000 nM on hFXR-LBD-GAL4 and above 500 nM on human FXR protein.

Regarding `O=C(O)c1ccc(Oc2ccc3cc(OCc4c(-c5c(Cl)cc(F)cc5Cl)noc4C4CC4)ccc3c2)nc1` [Compound 18], the EC50 at hFXR-LBD-GAL4 was above 1000 nM; on human FXR protein it was 50 to 500 nM.

With `COc1cc(Cl)c(-c2noc(C3CC3)c2COc2ccc3cc(Oc4ccc(C(=O)O)cn4)ccc3c2)c(Cl)c1` [Compound 19, 6-((6-((5-cyclopropyl-3-(2,6-dichloro-4-methoxyphenyl)isoxazol-4-yl)methoxy)naphthalen-2-yl)oxy)nicotinic acid], the EC50 is above 1000 nM at hFXR-LBD-GAL4 and above 500 nM at human FXR protein.

As to `O=C(O)c1ccc(Oc2ccc3cc(OCc4c(-c5c(Cl)cccc5Cl)noc4C4CC4)ccc3c2F)nc1` [Compound 20, 6-((6-((5-cyclopropyl-3-(2,6-dichlorophenyl)isoxazol-4-yl)methoxy)-1-fluoronaphthalen-2-yl)oxy)nicotinic acid], the EC50 at hFXR-LBD-GAL4 lay within 500 to 1000 nM; on human FXR protein, 50 to 500 nM.

As to `O=C(O)c1cccc(Oc2cccc3cc(OCc4c(-c5c(Cl)cccc5Cl)noc4C4CC4)ccc23)n1` [Compound 23, 6-((6-((5-cyclopropyl-3-(2,6-dichlorophenyl)isoxazol-4-yl)methoxy)naphthalen-1-yl)oxy)picolinic acid], the EC50 is above 1000 nM at hFXR-LBD-GAL4 and above 500 nM on human FXR protein.

For `O=C(O)c1ncccc1Oc1cccc2cc(OCc3c(-c4c(Cl)cccc4Cl)noc3C3CC3)ccc12` [Compound 25, 3-((6-((5-cyclopropyl-3-(2,6-dichlorophenyl)isoxazol-4-yl)methoxy)naphthalen-1-yl)oxy)picolinic acid], the EC50 on hFXR-LBD-GAL4 is above 1000 nM; at human FXR protein, 50 to 500 nM.

Consider `O=C(O)c1ccc(Oc2ccc3c(Cl)c(OCc4c(-c5c(Cl)cccc5Cl)noc4C4CC4)ccc3c2)nc1` [Compound 29, 6-((5-chloro-6-((5-cyclopropyl-3-(2,6-dichlorophenyl)-isoxazol-4-yl)methoxy)naphthalen-2-yl)oxy)nicotinic acid], for which the EC50 on hFXR-LBD-GAL4 lay within 500 to 1000 nM; at human FXR protein, 50 to 500 nM.

Take `O=C(O)c1ccc(Oc2c(F)ccc3cc(OCc4c(-c5c(Cl)cccc5Cl)noc4C4CC4)ccc23)nc1` [Compound 30, 6-((6-((5-cyclopropyl-3-(2,6-dichlorophenyl)isoxazol-4-yl)methoxy)-2-fluoronaphthalen-1-yl)oxy)nicotinic acid]: the EC50 was below 200 nM on hFXR-LBD-GAL4 and below 50 nM at human FXR protein.

For the molecule `O=C(O)c1ccc(Oc2ccc3cc(OCc4c(-c5c(Cl)cccc5Cl)noc4C4CC4)ccc3c2)nc1` [Compound 33], the values for the EC50 on hFXR-LBD-GAL4 and at human FXR protein were below 200 nM and 50 to 500 nM, respectively.
